{
  "source": "patent US4652551A",
  "about": "“Renin inhibiting compounds” (Abbott Laboratories, priority 1985, dated 1987)",
  "data": [
    {"biological_target": "T1, human renal renin (Homo sapiens, UniProt P00797)", "T1 construct": "human renal renin, free from acid proteolytic activity; from tissue; host or cells: human kidney (from the word 'renal')", "T1 sequence (P00797 67-406)": "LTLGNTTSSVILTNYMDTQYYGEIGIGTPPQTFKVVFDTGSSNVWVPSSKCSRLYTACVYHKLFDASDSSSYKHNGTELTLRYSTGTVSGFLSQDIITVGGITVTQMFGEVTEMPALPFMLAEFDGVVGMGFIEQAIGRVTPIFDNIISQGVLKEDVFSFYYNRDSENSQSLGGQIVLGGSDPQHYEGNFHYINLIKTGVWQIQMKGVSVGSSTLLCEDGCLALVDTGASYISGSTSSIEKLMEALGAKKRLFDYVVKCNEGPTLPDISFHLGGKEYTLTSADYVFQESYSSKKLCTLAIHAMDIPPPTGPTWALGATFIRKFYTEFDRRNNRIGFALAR", "test": "In vitro inhibition of human renal renin (angiotensin I formed, measured by radioimmunoassay)", "format": "biochemical", "conditions": "at 10^-5 M compound; human renin substrate (angiotensinogen), 37° C., pH 6.0", "experimental": "(§1) At the end of the incubation, the amount of angiotensin I formed is measured by radioimmunoassay and the present inhibition of renin is calculated.", "units": {"Inhibition": "%"}, "values": [
      {"smiles": "CC(C)CCC(O)C(CC(C)C)NC(=O)C(Cc1cnc[nH]1)NC(=O)C(Cc1ccccc1)NC(=O)OC(C)(C)C", "note": "(stereo not drawn) [Example 3, Boc-Phe-His amide of 4-amino-2,8-dimethyl-5-hydroxynonane]", "Inhibition": 89},
      {"smiles": "C=CCC(O)C(CC(C)C)NC(=O)C(C)NC(=O)C(Cc1ccccc1)NC(=O)OC(C)(C)C", "note": "(stereo not drawn) [Example 4C, Boc-Phe-Ala amide of 5-amino-4-hydroxy-7-methyl-1-octene]", "Inhibition": 48},
      {"smiles": "CC(C)CCC(O)C(CC(C)C)NC(=O)C(C)NC(=O)C(Cc1ccccc1)NC(=O)OC(C)(C)C", "note": "(stereo not drawn) [Example 2C, Boc-Phe-Ala amide of 4-amino-2,8-dimethyl-5-hydroxynonane]", "Inhibition": 85},
      {"smiles": "C=CC(C)(C)C(O)C(CC(C)C)NC(=O)C(C)NC(=O)C(Cc1ccccc1)NC(=O)OC(C)(C)C", "note": "(stereo not drawn) [Example 5C, Boc-Phe-Ala amide of 5-amino-4-hyroxy-3,3,7-trimethyl-1-octene]", "Inhibition": 7},
      {"smiles": "CC(C)CC(NC(=O)C(C)NC(=O)C(Cc1ccccc1)NC(=O)OC(C)(C)C)C(O)CCc1ccccc1", "note": "(stereo not drawn) [Example 1C, Boc-Phe-Ala amide of 4-amino-3-hydroxy-6-methyl-1-phenylheptane]", "Inhibition": 35}
    ]},
    {"biological_target": "T1, human renal renin", "test": "In vitro inhibition of human renal renin (angiotensin I formed, measured by radioimmunoassay)", "format": "biochemical", "conditions": "at 10^-8 M compound; human renin substrate (angiotensinogen), 37° C., pH 6.0", "experimental": "as §1", "units": {"Inhibition": "%"}, "values": [
      {"smiles": "CC(C)CCC(O)C(CC1CCCCC1)NC(=O)C(Cc1cnc[nH]1)NC(=O)C(Cc1ccccc1)NC(=O)OC(C)(C)C", "note": "(stereo not drawn) [Example 6C, Boc-Phe-His Amide of 2-Amino-1-cyclohexyl-3-hydroxy-6-methylheptane]", "Inhibition": 47}
    ]}
  ]
}
